Source: patent US9409864B2, “Sulfonamide TRPA1 receptor antagonists” (ARIO PHARMA LIMITED, priority 2013, dated 2016)
pIC50: −log10 of the molar value.

Molecular target: T1, native human TRPA1 receptors (Homo sapiens, UniProt O75762)
T1 construct: stably expressing native human TRPA1 receptors were used; endogenous in cells; host or cells: A549 human lung adenocarcinoma epithelial cell line
Assay: PF-4840154 (1 μM)-induced Ca2+ fluorescence measurements in A549 cell line
Assay type: cell-based
Conditions: for inhibition at 10 µM: 10 μM compound against 1 μM PF-4840154, A549 cells; for pIC50: against PF-4840154 (1 μM)-evoked [Ca2+]i mobilization; for pIC50 / IC50: A549 cells; for IC50: against PF-4840154 (1 μM), cells printed in μM
Experimental: PF-4840154 (1 μM)-Induced Ca^2+ Fluorescence Measurements in A549 Cell Line
Human lung adenocarcinoma epithelial cell line (A549) stably expressing native human TRPA1 receptors were used. The cells were cultured in medium consisting of Eagle's minimal essential medium (EMEM) supplemented with 10% fetal bovine serum (FBS), penicillin (100 IU/ml), streptomycin ([…]), L-glutamine (2 mM), sodium bicarbonate (2.5 g/L) and HEPES (24 mM). Cells were kept at 37° C. in 5% CO2/humidified air. For the experiments the cells were seeded at a density of 16,000 cells/well into 96-well black, clear-bottom plates. After 24 hours incubation the cells were loaded with medium supplemented with 2.5 mM probenecid, 3 μM of the calcium sensitive fluorescent dye Fluo-4 AM and 0.01% pluronic acid, for 30 min at 37° C. Afterwards the loading solution was aspirated and 100 μl/well of assay buffer: Hank's Balanced Salt Solution (HBSS) supplemented with 2.5 mM probenecid and 500 μM Brilliant Black (Aldrich) was added. Stock solutions (100 mM) of ligands were made in Dimethyl Sulfoxide (DMSO) and stored at −20° C. Serial dilutions of ligands for experimental use were made in HBSS buffer. After placing both plates (cell culture and compound plate) into the FlexStation II (Molecular Device, Union City, Calif. 94587, US), fluorescence changes were measured. On-line additions were carried out in a volume of […]. To facilitate drug diffusion into the wells in antagonist type experiments, the studies were performed at 36.5° C. and three cycles of mixing (25 μl from each well moved up and down 3 times) were performed immediately after antagonist injection to the wells. All exemplified compounds were tested alone (to address residual agonistic activity) and against 1 μM of PF-4840154 to address inhibitory activity at the initial concentration of 10 μM. For selected examples the entire inhibitory concentration-response curves were constructed and the IC50 value calculated.
PF-4840154 (1 μM) increased [Ca^2+] in the vast majority (95%) of cultured cells which were thereby identified as TRPA1 expressing cells.

T1 sequence (O75762 whole entry): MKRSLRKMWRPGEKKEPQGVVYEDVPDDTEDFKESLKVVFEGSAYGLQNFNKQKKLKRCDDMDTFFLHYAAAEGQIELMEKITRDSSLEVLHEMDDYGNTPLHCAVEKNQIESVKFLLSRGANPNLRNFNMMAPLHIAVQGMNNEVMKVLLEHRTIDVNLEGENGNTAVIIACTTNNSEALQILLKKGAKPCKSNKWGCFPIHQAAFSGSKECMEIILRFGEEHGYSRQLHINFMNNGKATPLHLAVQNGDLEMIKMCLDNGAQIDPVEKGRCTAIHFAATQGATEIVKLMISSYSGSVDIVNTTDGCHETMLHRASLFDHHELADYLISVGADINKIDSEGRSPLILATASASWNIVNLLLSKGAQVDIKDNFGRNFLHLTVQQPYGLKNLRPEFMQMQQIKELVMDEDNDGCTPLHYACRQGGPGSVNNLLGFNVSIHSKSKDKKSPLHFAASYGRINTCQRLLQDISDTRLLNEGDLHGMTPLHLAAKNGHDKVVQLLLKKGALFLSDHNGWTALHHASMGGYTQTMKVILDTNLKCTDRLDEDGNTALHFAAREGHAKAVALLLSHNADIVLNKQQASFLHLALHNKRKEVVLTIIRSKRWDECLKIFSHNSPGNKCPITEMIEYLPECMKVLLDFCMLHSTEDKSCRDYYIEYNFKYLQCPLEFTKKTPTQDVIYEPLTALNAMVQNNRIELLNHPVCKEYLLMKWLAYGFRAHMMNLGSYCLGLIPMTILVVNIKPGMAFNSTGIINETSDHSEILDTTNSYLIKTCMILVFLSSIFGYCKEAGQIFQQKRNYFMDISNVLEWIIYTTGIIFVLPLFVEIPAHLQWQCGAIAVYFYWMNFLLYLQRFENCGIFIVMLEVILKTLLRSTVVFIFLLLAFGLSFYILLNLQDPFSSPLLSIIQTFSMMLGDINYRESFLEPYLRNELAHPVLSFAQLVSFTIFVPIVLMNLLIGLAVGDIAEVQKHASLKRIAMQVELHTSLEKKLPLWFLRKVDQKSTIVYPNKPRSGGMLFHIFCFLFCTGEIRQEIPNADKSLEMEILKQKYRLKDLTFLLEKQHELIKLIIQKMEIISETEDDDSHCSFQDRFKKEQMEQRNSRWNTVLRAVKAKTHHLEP

inhibition at 10 µM	pIC50	IC50	SMILES
97%	7.20	–	CCN(C1(C(=O)NCc2ccnc(-c3ccc(C(F)(F)F)cc3)c2)CC1)S(=O)(=O)c1ccc(Cl)s1 [Example 46, 1-[(5-chloro-2-thienyl)sulfonyl-ethyl-amino]-N-[[2-[4-(trifluoromethyl)phenyl]-4-pyridyl]methyl]cyclopropanecarboxamide]
100%	6.87	–	CCN(C1(C(=O)NCc2ccnc(-c3ccc(OC(F)(F)F)cc3)c2)CC1)S(=O)(=O)c1ccc(Cl)cc1 [Example 27, 1-[(4-chlorophenyl)sulfonyl-ethyl-amino]-N-[[2-[4-(trifluoromethoxy)phenyl]-4-pyridyl]methyl]cyclopropanecarboxamide]
100%	6.18	–	CCN(C1(C(=O)NCc2cc(-c3ccc(C(F)(F)F)cc3)nc(N3CCOCC3)c2)CC1)S(=O)(=O)c1ccc(F)cc1 [Example 62, 1-[ethyl-(4-fluorophenyl)sulfonyl-amino]-N-[[2-morpholino-6-[4-(trifluoromethyl)phenyl]-4-pyridyl]methyl] cyclopropanecarboxamide]
96%	6.60	–	C=C(C(=O)NCc1cc(-c2ccc(OC(F)(F)F)cc2)nc(-c2ccc(OC(F)(F)F)cc2)c1)N(C)S(=O)(=O)c1ccc(Cl)cc1 [Example 20, N-[[2,6-bis[4-(trifluoromethoxy)phenyl]-4-pyridyl]methyl]-2-[(4-chlorophenyl)sulfonyl-methyl-amino]prop-2-enamide]
98%	6.87	–	C=C(C(=O)NCc1ccnc(-c2ccc(OC(F)(F)F)cc2)c1)N(C)S(=O)(=O)c1ccc(F)cc1 [Example 2, 2-[(4-fluorophenyl)sulfonyl-methyl-amino]-N-[[2-[4-(trifluoromethoxy)phenyl]-4-pyridyl]methyl]prop-2-enamide]
100%	6.89	–	CCN(C1(C(=O)NCc2ccnc(-c3ccc(OC(F)(F)F)cc3)c2)CC1)S(=O)(=O)c1ccc(Cl)s1 [Example 28, 1-[(5-chloro-2-thienyl)sulfonyl-ethyl-amino]-N-[[2-[4-(trifluoromethoxy)phenyl]-4-pyridyl]methyl]cyclopropanecarboxamide]
99%	6.47	–	CCN(C1(C(=O)NCc2cc(-c3ccc(C(F)(F)F)cc3)nc(N3CCN(CC4CC4)CC3)c2)CC1)S(=O)(=O)c1ccc(F)cc1 [Example 64, N-[[2-[4-(cyclopropylmethyl)piperazin-1-yl]-6-[4-(trifluoromethyl)phenyl]-4-pyridyl]methyl]-1-[ethyl-(4-fluorophenyl)sulfonyl-amino]cyclopropanecarboxamide]
96%	6.87	–	C=C(C(=O)NCc1cc(-c2ccc(C(F)(F)F)cc2)nc(N(C)C)c1)N(CC)S(=O)(=O)c1cccs1 [Example 41, N-[[2-dimethylamino-6-[4-(trifluoromethyl)phenyl]-4-pyridyl]methyl]-2-(ethyl(2-thienylsulfonyl)amino)prop-2-enamide]
100%	6.56	–	C=C(C(=O)NCc1ccnc(-c2ccc(C(F)(F)F)cc2)c1)N(C)S(=O)(=O)c1ccc(F)cc1 [Example 56, 2-[(4-fluorophenyl)sulfonyl-methyl-amino]-N-[[2-[4-(trifluoromethyl)phenyl]-4-pyridyl]methyl]prop-2-enamide]
100%	7.32	–	C=C(C(=O)NCc1cc(-c2ccc(C(F)(F)F)cc2)nc(N2CCOCC2)c1)N(CC)S(=O)(=O)c1ccc(Cl)s1 [Example 43, 2-[(5-chloro-2-thienyl)sulfonyl-ethyl-amino]-N-[[2-morpholino-6-[4-(trifluoromethyl)phenyl]-4-pyridyl]methyl]prop-2-enamide]
100%	7.48	–	C=C(C(=O)NCc1ccnc(-c2ccc(C(F)(F)F)cc2)c1)N(CC)S(=O)(=O)c1ccc(Cl)s1 [Example 12, 2-[(5-chloro-2-thienyl)sulfonyl-ethyl-amino]-N-[[2-[4-(trifluoromethyl)phenyl]-4-pyridyl]methyl]prop-2-enamide]
55%	–	> 2 µM	O=C(NCc1cc(-c2ccc(OC(F)(F)F)cc2)nc(N2CCCC2)c1)C1(NS(=O)(=O)c2ccc(F)cc2)CC1 [Example 33, 1-[(4-fluorophenyl)sulfonylamino]-N-[[2-pyrrolidin-1-yl-6-[4-(trifluoromethoxy)phenyl]-4-pyridyl]methyl]cyclopropanecarboxamide]
80%	–	> 4 µM	O=C(NCc1cc(-c2ccc(C(F)(F)F)cc2)nc(N2CCCC2)c1)C1(NS(=O)(=O)c2ccc(F)cc2)CC1 [Example 32, 1-[(4-fluorophenyl)sulfonylamino]-N-[[2-pyrrolidin-1-yl-6-[4-(trifluoromethyl)phenyl]-4-pyridyl]methyl] cyclopropanecarboxamide]
99%	6.76	–	C=C(C(=O)NCc1cc(-c2ccc(OC(F)(F)F)cc2)nc(N2CCN(CC3CC3)CC2)c1)N(CC)S(=O)(=O)c1ccc(F)cc1 [Example 63, N-[[2-[4-(cyclopropylmethyl)piperazin-1-yl]-6-[4-(trifluoromethoxy)phenyl]-4-pyridyl]methyl]-2-[ethyl-(4-fluorophenyl)sulfonyl-amino]prop-2-enamide]
96%	6.59	–	CCN(C1(C(=O)NCc2cc(OC)nc(-c3ccc(C(F)(F)F)cc3)c2)CC1)S(=O)(=O)c1ccc(F)cc1 [Example 48, 1-[ethyl-(4-fluorophenyl)sulfonyl-amino]-N-[[2-methoxy-6-[4-(trifluoromethyl)phenyl]-4-pyridyl]methyl]cyclopropanecarboxamide]
100%	7.24	–	CCN(C1(C(=O)NCc2cccc(-c3ccc(OC(F)(F)F)cc3)c2)CC1)S(=O)(=O)c1ccc(F)cc1 [Example 31, 1-[ethyl-(4-fluorophenyl)sulfonyl-amino]-N-[[3-[4-(trifluoromethoxy)phenyl]phenyl]methyl]cyclopropanecarboxamide]
100%	7.74	–	C=C(C(=O)NCc1cc(OC(C)C)nc(-c2ccc(C(F)(F)F)cc2)c1)N(CC)S(=O)(=O)c1ccc(F)cc1 [Example 44, 2-[ethyl-(4-fluorophenyl)sulfonyl-amino]-N-[[2-isopropoxy-6-[4-(trifluoromethyl)phenyl]-4-pyridyl]methyl]prop-2-enamide]
100%	7.70	–	C=C(C(=O)NCc1cc(-c2ccc(C(F)(F)F)cc2)nc(N(C)C)c1)N(CC)S(=O)(=O)c1ccc(Cl)s1 [Example 39, 2-[(5-chloro-2-thienyl)sulfonyl-ethyl-amino]-N-[[2-dimethylamino-6-[4-(trifluoromethyl)phenyl]-4-pyridyl]methyl]prop-2-enamide]
100%	6.82	–	CCN(C1(C(=O)NCc2cc(-c3ccc(C(F)(F)F)cc3)nc(N(C)C)c2)CC1)S(=O)(=O)c1ccc(F)cc1 [Example 45, N-[[2-dimethylamino-6-[4-(trifluoromethyl)phenyl]-4-pyridyl]methyl]-1-[ethyl-(4-fluorophenyl)sulfonyl-amino]cyclopropanecarboxamide]
100%	6.98	–	C=C(C(=O)NCc1cc(-c2ccc(C(F)(F)F)cc2)nc(N2CCOCC2)c1)N(CC)S(=O)(=O)c1ccc(F)cc1 [Example 42, 2-[ethyl-(4-fluorophenyl)sulfonyl-amino]-N-[[2-morpholino-6-[4-(trifluoromethyl)phenyl]-4-pyridyl]methyl]prop-2-enamide]
100%	6.49	–	CCN(C1(C(=O)NCc2cc(-c3ccc(C(F)(F)F)cc3)nc(N3CCN(CC4CC4)CC3)c2)CC1)S(=O)(=O)c1ccc(Cl)s1 [Example 65, 1-[(5-chloro-2-thienyl)sulfonyl-ethyl-amino]-N-[[2-[4-(cyclopropylmethyl)piperazin-1-yl]-6-[4-(trifluoromethyl)phenyl]-4-pyridyl]methyl]cyclopropanecarboxamide]
98%	6.36	–	C/C=C(/C(=O)NCc1cccc(-c2ccc(C(F)(F)F)cc2)c1)N(C)S(=O)(=O)c1ccc(Cl)cc1 [Example 23, (Z)-2-[(4-chlorophenyl)sulfonyl-methyl-amino]-N-[[3-[4-(trifluoromethyl)phenyl]phenyl]methyl]but-2-enamide]
99%	7.06	–	CCOc1cc(CNC(=O)C2(N(CC)S(=O)(=O)c3ccc(F)cc3)CC2)cc(-c2ccc(C(F)(F)F)cc2)n1 [Example 52, N-[[2-ethoxy-6-[4-(trifluoromethyl)phenyl]-4-pyridyl]methyl]-1-[ethyl-(4-fluorophenyl)sulfonyl-amino]cyclopropanecarboxamide]
